Key:
[1] = tested on: cows; assay: Cyclic oral feeding of glycerol to cows, milk component concentrations (Example 8); type: in vivo, cow; settings: for Fat in Milk / Lactose in Milk / Total Solids in Milk / True Protein in Milk: oral
Description: To determine the weight percent total solids, wet basis, in a sample, the actual weight of total solids is determined by analyzing the sample in accordance with Method #925.23 (33.2.09) of Official Methods of Analysis, Association of Official Analytical Chemists (AOAC) (16th Ed., 1995). The weight percent total solids, wet basis, is then calculated by dividing the actual weight of total solids by the actual weight of the sample. The weight percent of true protein, wet basis, for a particular sample is calculated after first determining the wet basis weight percent of total Kjeldahl nitrogen and the wet basis weight percent of non-protein nitrogen in the sample. The wet basis weight percent of total Kjeldahl nitrogen in the sample is determined using the method referenced above. The wet basis weight percent of non-protein nitrogen (NPN) in the sample is determined in accordance with Method #991.21 (33.2.12) of Official Methods of Analysis, Association of Official Analytical Chemists (AOAC) (16th Ed., 1995). The weight percent of true protein, wet basis, in the sample is then determined by subtracting the wet basis weight percent of non-protein nitrogen in the sample from the wet basis weight percent of total Kjeldahl nitrogen in the sample. To determine the weight percent lactose, wet basis, in a liquid sample, the weight of the liquid sample is first determined. The actual weight of lactose in the liquid sample may then be determined using analysis kit number 176-303, that is available from Boehringer-Mannheim of Indianapolis, Ind. in accordance with the procedural instructions included with analysis kit number 176-303. The weight percent lactose, wet basis, in the liquid sample is then calculated by dividing the actual weight of lactose in the liquid sample by the actual weight of the liquid sample. To determine the weight percent fat, wet basis, in a sample, the actual weight of fat in the sample is determined in accordance with Method #974.09 (33.7.18) of Official Methods of Analysis, Association of Official Analytical Chemists (AOAC) (16th Ed., 1995). The weight percent fat, wet basis, is then calculated by dividing the actual weight of fat in the sample by the actual weight of the sample. In Example 8, glycerol was periodically fed orally to several test cows. Period 1 lasted from week 1-3, Period 2 lasted from week 4-6, and Period 3 lasted from week 7-9, with week 0 being the start of the test period in which no glycerol was provided. The results presented in Table 7 below are averages for particular components for milk produced from each of the test animals.

[2] = tested on: cows; assay: Abomasal infusion of sorbitol in cows, milk component concentrations (Example 2); type: in vivo, cow; settings: for Ash / Fat / Lactose / Total Solids / True Protein: 100 g/cow/day abomasal, average of 3 cows
Description: To determine the weight percent total solids, wet basis, in a sample, the actual weight of total solids is determined by analyzing the sample in accordance with Method #925.23 (33.2.09) of Official Methods of Analysis, Association of Official Analytical Chemists (AOAC) (16th Ed., 1995). The weight percent total solids, wet basis, is then calculated by dividing the actual weight of total solids by the actual weight of the sample. The weight percent of true protein, wet basis, for a particular sample is calculated after first determining the wet basis weight percent of total Kjeldahl nitrogen and the wet basis weight percent of non-protein nitrogen in the sample. The wet basis weight percent of total Kjeldahl nitrogen in the sample is determined using the method referenced above. The wet basis weight percent of non-protein nitrogen (NPN) in the sample is determined in accordance with Method #991.21 (33.2.12) of Official Methods of Analysis, Association of Official Analytical Chemists (AOAC) (16th Ed., 1995). The weight percent of true protein, wet basis, in the sample is then determined by subtracting the wet basis weight percent of non-protein nitrogen in the sample from the wet basis weight percent of total Kjeldahl nitrogen in the sample. To determine the weight percent lactose, wet basis, in a liquid sample, the weight of the liquid sample is first determined. The actual weight of lactose in the liquid sample may then be determined using analysis kit number 176-303, that is available from Boehringer-Mannheim of Indianapolis, Ind. in accordance with the procedural instructions included with analysis kit number 176-303. The weight percent lactose, wet basis, in the liquid sample is then calculated by dividing the actual weight of lactose in the liquid sample by the actual weight of the liquid sample. To determine the weight percent fat, wet basis, in a sample, the actual weight of fat in the sample is determined in accordance with Method #974.09 (33.7.18) of Official Methods of Analysis, Association of Official Analytical Chemists (AOAC) (16th Ed., 1995). The weight percent fat, wet basis, is then calculated by dividing the actual weight of fat in the sample by the actual weight of the sample. In this example, sorbitol was abomasally infused into three different cows at a rate of 100 grams of sorbitol per cow per day during a 14 day test period. The sorbitol rations were mixed with water to facilitate infusion. The rations provided to the cows during the period extending from day 0, prior to abomasal infusion of sorbitol, through day 14 of the test period were the same. The only difference in feeding of the cows between day 0 and days 1-14 of the test period were that during days 1-14 the cows were abomasally infused with the dosage of 100 grams of sorbitol per cow per day. Milk from the three cows was collected and analyzed prior to infusion (on day 0) and also was collected and analyzed on the third, seventh and fourteenth day of the test period. The results presented in Table 2 below for each milk component for each particular day are averages for the milk collected from the three different cows. The net change for the different milk components presented in Table 2 was calculated by averaging the results of days 3, 7 and 14 for a particular milk component and subtracting the results presented for day 0 for the particular milk component.

[3] = Period 1 (Fed Glycerol), weeks 1-3
[4] = Period 3 (Fed Glycerol), weeks 7-9
[5] = milk, average of days 3, 7, 14 minus day 0

## OCC(O)CO [glycerol]
[1]; cyclic oral feeding
  fat, lactose, or total solids content of the milk (conclusion in words): no increase or essentially no increase
[1]; [3]
  Fat in Milk: 3.06 wt %
  Lactose in Milk: 4.97 wt %
  Total Solids in Milk: 11.38 wt %
  True Protein in Milk: 2.64 wt %
[1]; [4]
  Fat in Milk: 3.22 wt %
  Lactose in Milk: 4.80 wt %
  Total Solids in Milk: 11.43 wt %
  True Protein in Milk: 2.69 wt %

## OC[C@@H](O)[C@@H](O)[C@H](O)[C@@H](O)CO [sorbitol]
[2]; abomasal infusion, 14 day test period
  weight percent of fat, true protein, and total solids in the milk (conclusion in words): net increase
[2]; milk, Day 3
  Ash: 0.73 Wt. %
  Fat: 4.59 Wt %
  Lactose: 4.62 Wt. %
  Total Solids: 13.00 Wt. %
  True Protein: 3.06 Wt. %
[2]; milk, Day 7
  Ash: 0.73 Wt. %
  Fat: 3.78 Wt %
  Lactose: 4.87 Wt. %
  Total Solids: 12.40 Wt. %
  True Protein: 3.01 Wt. %
[2]; milk, Day 14
  Ash: 0.71 Wt. %
  Fat: 4.33 Wt %
  Lactose: 4.75 Wt. %
  Total Solids: 12.88 Wt. %
  True Protein: 3.09 Wt. %
[2]; [5]
  Ash, Net Change: no net change
  Fat, Net Change: +0.67 Wt %
  Lactose, Net Change: −0.13 Wt. %
  Total Solids, Net Change: +0.63 Wt. %
  True Protein, Net Change: +0.08 Wt. %

Source: patent US6866861B1, “Method and composition for enhancing milk component concentrations” (Land O'Lakes, Inc., priority 1999, dated 2005)
